Columns and labels:
Hep3B cells = experiment: In vitro cell uptake, Hep3B (FIG. 1c); format: cell-based, human; conditions: control ^68Ga-NOTA
[1] = tested on: SNU-C4 xenografted nude mice; experiment: Biodistribution study in SNU-C4 xenografted nude mice after intravenous injection; format: in vivo, mouse; conditions: for % ID/g Tumor: SNU-C4 tumor
Method: Human colon cancer cell line SNU-C4 was cultured in RPMI1640 media containing 10% fetal bovine serum and harvested using trypsin. The cells were washed using 10 mL PBS and centrifugation at 3,000 rpm. Each nude mouse was injected with 2×10^5 cells/0.1 mL on the right shoulder subcutaneously. On 13 days post-injection, each 10 μCi/0.1 mL of ^68Ga labeled agent was injected into the xenografted mice through the tail vein. The injected mice were sacrificed at 10 min, 30 min, 1 hr, and 2 hr, cancer, blood, muscle, heart, liver, spleen, stomach, intestine, and bone were obtained, weighed, and their radioactivities were counted. The results were expressed as percentages of injected dose per gram tissue (% ID/g).

[2] = tested on: SNU-C4 xenografted nude mice; experiment: PET imaging of tumor xenografted mice; format: in vivo, mouse; conditions: PET at 1 and 2 hr post-injection, FIG. 2
Method: Human colon cancer cell line SNU-C4 was cultured in RPMI1640 media containing 10% fetal bovine serum and harvested using trypsin. The cells were washed using 10 mL PBS and centrifugation at 3,000 rpm. Each nude mouse was injected with 2×10^5 cells/0.1 mL on the right shoulder subcutaneously. On 14 days post-injection, each 10 μCi/0.1 mL of ^68Ga labeled agent was injected into the xenografted mice through the tail vein. The injected mice were anesthetized using 2% isoflurane, PET images were obtained at 1 and 2 hr post-injection using rodent R4, microPET scanner (Concorde Microsystem Inc.). The images were analyzed using ASIPro software (Concorde Microsystem Inc.).

U87MG cells = experiment: In vitro cell uptake, U87MG (FIG. 1a); format: cell-based, human; conditions: controls ^68Ga-DOTA, ^68Ga-NOTA
Method: Human colon cancer cell line SNU-C4 was purchased from Korea Cell Line Bank (KCLB). Human thyroid cell line ARO, human liver cancer cell line Hep3B, human glioma cell line U251MG and U87MG, and mouse colon cell line CT-26 were purchased from American Type Culture Collection (ATCC). SNU-C4 and ARO were culture in RPMI1640 (Welgene Inc., Korea) and Hep3B, U251 MG, U87MG, and CT-26 were cultured in DMEM (Welgene Inc., Korea). Penicillin, streptomycin and amphotericin B (10,000 IU/mL, 10 mg/mL and 25 μg/mL, respectively, Mediatech Inc., U.S.A.) 1% mixture and fetal bovine serum (Welgene Inc., Korea) were added to all cell culture media. Cell culture was done in 37° C. incubator with supply of 5% CO2.
About 1.8×10^5 cells/mL CT-26 and 1.2×10^5 cells/mL U87MG were put into 24-well incubation plate and incubated for 20 hr. When the each well was about 80% confluent with cells, 296 kBq/0.5 mL of ^68Ga labeled agent was added to each well. Culture supernatants were discarded at each time point and cells were washed with ice-cooled Hank's balanced salt solution (HBSS, pH7.3, Gibco, U.S.A.) 2 times. The cells were dissolved by 0.5% sodium dodecylsulfate (SDS), recovered and counted using a gamma counter (Packard, Can berra Co., U.S.A.). Total protein amount in each sample was measured by bicinchonic acid (BCA, Pierce, U.S.A.) method.

[3] = 10 min after intravenous injection
[4] = 30 min after intravenous injection
[5] = 1 hr after intravenous injection
[6] = 2 hr after intravenous injection

SMILES: NC(CNC(=O)CN1CCN(CC(=O)[O-])CCN(CC(=O)[O-])CC1)C(=O)[O-].[68Ga+3] (centres unmarked) [^68Ga-NOTA-ala]
- tumor cell uptake versus control agents (Hep3B cells): significantly increase tumor cell uptakes
- % ID/g Tumor [1, 3]: 2.87 ± 0.58 % ID/g
- % ID/g Tumor [1, 4]: 1.40 ± 0.43 % ID/g
- % ID/g Tumor [1, 5]: 0.73 ± 0.25 % ID/g
- % ID/g Tumor [1, 6]: 0.61 ± 0.34 % ID/g
- tumor uptake compared with the control heterocyclic compound (in words) ([1]; SNU-C4 xenografted nude mice, 10 min to 2 hr): higher and increasing by time
- tumor uptake relative to that of ^68Ga-NOTA ([1]; at 10 min): 1.07 times
- tumor uptake relative to that of ^68Ga-NOTA ([1]; at 30 min): 1.09 times
- tumor uptake relative to that of ^68Ga-NOTA ([1]; at 1 hr): 1.24 times
- tumor uptake relative to that of ^68Ga-NOTA ([1]; at 2 hr): 1.42 times
- % ID/g Blood [1, 3]: 7.46 ± 0.78 % ID/g
- % ID/g Blood [1, 4]: 2.69 ± 0.59 % ID/g
- % ID/g Blood [1, 5]: 0.73 ± 0.05 % ID/g
- % ID/g Blood [1, 6]: 0.15 ± 0.03 % ID/g
- % ID/g Bone [1, 3]: 2.22 ± 0.34 % ID/g
- % ID/g Bone [1, 4]: 1.05 ± 0.35 % ID/g
- % ID/g Bone [1, 5]: 0.47 ± 0.09 % ID/g
- % ID/g Bone [1, 6]: 0.10 ± 0.07 % ID/g
- % ID/g Heart [1, 3]: 2.13 ± 0.13 % ID/g
- % ID/g Heart [1, 4]: 0.71 ± 0.17 % ID/g
- % ID/g Heart [1, 5]: 0.26 ± 0.03 % ID/g
- % ID/g Heart [1, 6]: 0.10 ± 0.05 % ID/g
- % ID/g Intestine [1, 3]: 1.74 ± 0.22 % ID/g
- % ID/g Intestine [1, 4]: 0.77 ± 0.19 % ID/g
- % ID/g Intestine [1, 5]: 0.44 ± 0.07 % ID/g
- % ID/g Intestine [1, 6]: 0.35 ± 0.11 % ID/g
- % ID/g Kidney [1, 3]: 20.96 ± 7.35 % ID/g
- % ID/g Kidney [1, 4]: 9.07 ± 1.68 % ID/g
- % ID/g Kidney [1, 5]: 5.81 ± 0.57 % ID/g
- % ID/g Kidney [1, 6]: 4.04 ± 0.63 % ID/g
- % ID/g Liver [1, 3]: 2.08 ± 0.25 % ID/g
- % ID/g Liver [1, 4]: 1.34 ± 0.22 % ID/g
- % ID/g Liver [1, 5]: 1.05 ± 0.04 % ID/g
- % ID/g Liver [1, 6]: 0.84 ± 0.18 % ID/g
- % ID/g Muscle [1, 3]: 2.29 ± 0.52 % ID/g
- % ID/g Muscle [1, 4]: 0.87 ± 0.33 % ID/g
- % ID/g Muscle [1, 5]: 0.26 ± 0.05 % ID/g
- % ID/g Muscle [1, 6]: 0.06 ± 0.04 % ID/g
- % ID/g Spleen [1, 3]: 1.84 ± 0.10 % ID/g
- % ID/g Spleen [1, 4]: 0.93 ± 0.14 % ID/g
- % ID/g Spleen [1, 5]: 0.55 ± 0.07 % ID/g
- % ID/g Spleen [1, 6]: 0.48 ± 0.11 % ID/g
- % ID/g Stomach [1, 3]: 2.46 ± 0.31 % ID/g
- % ID/g Stomach [1, 4]: 0.79 ± 0.17 % ID/g
- % ID/g Stomach [1, 5]: 0.33 ± 0.08 % ID/g
- % ID/g Stomach [1, 6]: 0.18 ± 0.05 % ID/g
- PET image quality [2]: the highest quality image
- tumor uptake in PET images [2]: high tumor uptakes
- tumor cell uptake versus control agents (U87MG cells): significantly increase tumor cell uptakes

SMILES: NC(CCCCNC(=O)CN1CCN(CC(=O)[O-])CCN(CC(=O)[O-])CC1)C(=O)[O-].[68Ga+3] (centres unmarked) [^68Ga-NOTA-lys]
- tumor cell uptake versus control agents (Hep3B cells): significantly increase tumor cell uptakes

Source: patent US20120029177A1, “HETEROCYCLE-AMINO ACID DERIVATIVES FOR TARGETING CANCER TISSUE AND RADIOACTIVE OR NON-RADIOACTIVE LABELED COMPOUNDS THEREOF” (SNU R&DB FOUNDATION, priority 2009, published 2012)
